PMC7033278, “A Nonpeptide Oxytocin Receptor Agonist for a Durable Relief of Inflammatory Pain” (Scientific Reports, 2020)

Experiments:
[1] = stability in PBS solution over 24 h; format: physicochemical; conditions: PBS pH 7.4, room temperature, after 24 h
24 off-target GPCRs = assay: Eurofins SafetyScreen functional panel, GPCR agonist and antagonist profile; format: cell-based; conditions: 5 μM, 24 GPCRs
Experimental: (§1) In vitro profiling of LIT-001 was performed by Eurofins as described in the Eurofins SafetyScreen-Functional panel, 2018[31]. The hepatotoxicity of LIT-001 was studied with cryo-preserved mouse hepatocytes. After unfreezing (optiTHAW and optiINCUBATE media, Xenotech) and cell viability control, cells (2 × 10^6 cells/ml) were dispatched in 96 well microtiterplates. LIT-001 was added to reach a concentration 1 μM in the presence of 1 × 10^6 cells/mL in a volume of 100 μl/well. The incubation was stopped at 4, 20, 40, 80 and 120 min in adding 100 μl of acetonitrile at 0 °C. A positive control was treated in the same conditions. All samples were analyzed by UHPLC coupled to a mass spectrometer (Shimadzu LC-MS 8030).

COX(2) = molecular target: T1, COX(2) (Homo sapiens, UniProt P35354); assay: enzyme inhibition; format: biochemical
T1 construct: Eurofins (contract assay)
T1 sequence (P35354 18-604): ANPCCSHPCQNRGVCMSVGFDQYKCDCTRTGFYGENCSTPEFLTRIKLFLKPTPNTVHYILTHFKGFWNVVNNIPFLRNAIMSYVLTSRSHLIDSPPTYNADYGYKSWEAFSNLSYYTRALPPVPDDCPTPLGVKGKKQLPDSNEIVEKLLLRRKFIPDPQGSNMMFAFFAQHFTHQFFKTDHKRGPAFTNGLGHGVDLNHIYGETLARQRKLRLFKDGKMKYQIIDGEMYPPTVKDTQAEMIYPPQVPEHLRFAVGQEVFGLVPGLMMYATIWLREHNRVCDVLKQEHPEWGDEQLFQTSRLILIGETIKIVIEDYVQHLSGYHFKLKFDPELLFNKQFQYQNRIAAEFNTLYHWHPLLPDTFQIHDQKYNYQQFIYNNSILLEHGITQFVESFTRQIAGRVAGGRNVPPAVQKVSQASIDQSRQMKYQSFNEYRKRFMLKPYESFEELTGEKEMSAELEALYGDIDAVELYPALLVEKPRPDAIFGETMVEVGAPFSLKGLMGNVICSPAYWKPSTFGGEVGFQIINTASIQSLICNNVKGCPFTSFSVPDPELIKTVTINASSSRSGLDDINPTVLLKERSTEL
Experimental: as §1

Lck kinase = molecular target: T2, Lck kinase (Homo sapiens, UniProt P06239); assay: enzyme inhibition; format: biochemical; conditions: range given for five enzymes together, below significance
T2 construct: Eurofins (contract assay)
T2 sequence (P06239 whole entry): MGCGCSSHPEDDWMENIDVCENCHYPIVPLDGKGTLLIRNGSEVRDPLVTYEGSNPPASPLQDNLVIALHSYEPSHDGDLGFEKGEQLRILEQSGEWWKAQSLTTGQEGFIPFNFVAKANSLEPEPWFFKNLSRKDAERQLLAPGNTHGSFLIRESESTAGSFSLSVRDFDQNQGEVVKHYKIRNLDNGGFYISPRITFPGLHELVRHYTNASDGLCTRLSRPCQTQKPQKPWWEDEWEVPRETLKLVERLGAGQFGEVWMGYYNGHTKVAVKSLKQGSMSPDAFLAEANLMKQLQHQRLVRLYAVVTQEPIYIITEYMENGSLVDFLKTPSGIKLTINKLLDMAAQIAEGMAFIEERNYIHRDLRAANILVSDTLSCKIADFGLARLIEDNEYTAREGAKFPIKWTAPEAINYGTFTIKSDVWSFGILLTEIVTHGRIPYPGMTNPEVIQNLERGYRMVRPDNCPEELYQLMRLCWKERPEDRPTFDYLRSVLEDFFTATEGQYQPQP
Experimental: as §1

[2] = molecular target: T3, MAO-A from human placenta (Homo sapiens, UniProt P21397); assay: enzyme inhibition; format: biochemical; conditions: range given for five enzymes together, below significance
T3 construct: MAO-A from human placenta; tissue Eurofins (contract assay); host or cells: human placenta
T3 sequence (P21397 whole entry): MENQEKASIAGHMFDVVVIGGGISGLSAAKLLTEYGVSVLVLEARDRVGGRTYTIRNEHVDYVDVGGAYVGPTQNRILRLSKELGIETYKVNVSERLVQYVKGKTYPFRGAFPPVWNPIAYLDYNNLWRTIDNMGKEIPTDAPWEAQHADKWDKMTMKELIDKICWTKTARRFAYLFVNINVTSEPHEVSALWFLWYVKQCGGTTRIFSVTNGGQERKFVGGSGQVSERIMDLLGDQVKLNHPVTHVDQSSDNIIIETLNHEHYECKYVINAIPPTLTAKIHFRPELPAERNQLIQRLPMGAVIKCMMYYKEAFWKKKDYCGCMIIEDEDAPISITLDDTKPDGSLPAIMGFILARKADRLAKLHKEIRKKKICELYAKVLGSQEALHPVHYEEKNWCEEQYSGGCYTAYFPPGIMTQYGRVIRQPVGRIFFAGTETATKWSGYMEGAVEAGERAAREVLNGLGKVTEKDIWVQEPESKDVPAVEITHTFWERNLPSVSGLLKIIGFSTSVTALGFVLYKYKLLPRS
Experimental: as §1

PDE3A = molecular target: T4, PDE3A (Homo sapiens, UniProt Q14432); assay: enzyme inhibition; format: biochemical; conditions: range given for five enzymes together, below significance
T4 construct: Eurofins (contract assay)
T4 sequence (Q14432 whole entry): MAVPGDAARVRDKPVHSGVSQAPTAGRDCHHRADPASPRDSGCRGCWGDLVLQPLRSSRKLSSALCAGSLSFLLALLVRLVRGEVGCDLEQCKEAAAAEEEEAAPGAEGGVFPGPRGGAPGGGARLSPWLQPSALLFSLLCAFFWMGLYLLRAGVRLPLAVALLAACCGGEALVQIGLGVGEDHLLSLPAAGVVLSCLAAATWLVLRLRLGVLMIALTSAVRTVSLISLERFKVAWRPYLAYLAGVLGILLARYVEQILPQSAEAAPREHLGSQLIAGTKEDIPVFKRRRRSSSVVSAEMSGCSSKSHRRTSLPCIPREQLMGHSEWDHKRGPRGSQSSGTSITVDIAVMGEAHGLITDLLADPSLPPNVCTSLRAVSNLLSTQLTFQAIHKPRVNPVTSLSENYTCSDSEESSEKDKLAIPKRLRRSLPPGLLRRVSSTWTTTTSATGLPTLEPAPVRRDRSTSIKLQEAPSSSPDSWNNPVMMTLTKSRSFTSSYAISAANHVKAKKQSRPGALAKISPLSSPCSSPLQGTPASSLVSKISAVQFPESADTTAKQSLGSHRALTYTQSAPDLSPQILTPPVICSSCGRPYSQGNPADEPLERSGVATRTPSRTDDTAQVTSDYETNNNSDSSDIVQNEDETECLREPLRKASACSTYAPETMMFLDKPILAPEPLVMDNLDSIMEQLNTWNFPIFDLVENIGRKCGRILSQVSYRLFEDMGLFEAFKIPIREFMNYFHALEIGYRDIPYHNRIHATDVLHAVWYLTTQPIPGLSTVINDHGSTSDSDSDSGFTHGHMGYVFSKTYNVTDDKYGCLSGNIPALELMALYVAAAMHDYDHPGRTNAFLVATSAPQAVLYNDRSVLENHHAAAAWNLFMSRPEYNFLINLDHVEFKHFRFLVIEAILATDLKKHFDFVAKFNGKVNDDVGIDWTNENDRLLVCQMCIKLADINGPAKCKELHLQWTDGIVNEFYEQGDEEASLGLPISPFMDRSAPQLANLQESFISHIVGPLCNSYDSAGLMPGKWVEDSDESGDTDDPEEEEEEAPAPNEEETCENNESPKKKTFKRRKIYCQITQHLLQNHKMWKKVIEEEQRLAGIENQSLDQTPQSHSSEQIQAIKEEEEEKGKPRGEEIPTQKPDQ
Experimental: as §1

PDE4D2 = molecular target: T5, PDE4D2 (Homo sapiens, UniProt Q08499); assay: enzyme inhibition; format: biochemical
T5 construct: Eurofins (contract assay)
T5 sequence (Q08499 303-809): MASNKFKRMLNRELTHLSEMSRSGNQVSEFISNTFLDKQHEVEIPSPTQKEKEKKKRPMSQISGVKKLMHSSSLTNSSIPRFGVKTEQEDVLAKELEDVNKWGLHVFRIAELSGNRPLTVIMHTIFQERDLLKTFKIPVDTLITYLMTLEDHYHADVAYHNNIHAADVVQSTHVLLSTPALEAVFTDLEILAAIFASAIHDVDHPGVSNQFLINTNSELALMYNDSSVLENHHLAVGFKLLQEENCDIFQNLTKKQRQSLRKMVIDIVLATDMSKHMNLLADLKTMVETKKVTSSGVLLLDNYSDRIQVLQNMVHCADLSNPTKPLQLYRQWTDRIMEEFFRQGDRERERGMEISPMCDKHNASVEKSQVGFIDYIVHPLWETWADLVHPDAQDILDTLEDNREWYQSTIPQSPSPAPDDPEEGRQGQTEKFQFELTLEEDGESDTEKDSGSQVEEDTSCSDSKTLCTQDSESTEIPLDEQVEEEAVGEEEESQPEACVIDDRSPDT
Experimental: as §1

acetylcholinesterase = molecular target: T6, acetylcholinesterase (Homo sapiens, UniProt P22303); assay: enzyme inhibition; format: biochemical; conditions: range given for five enzymes together, below significance
T6 construct: Eurofins (contract assay)
T6 sequence (P22303 32-614): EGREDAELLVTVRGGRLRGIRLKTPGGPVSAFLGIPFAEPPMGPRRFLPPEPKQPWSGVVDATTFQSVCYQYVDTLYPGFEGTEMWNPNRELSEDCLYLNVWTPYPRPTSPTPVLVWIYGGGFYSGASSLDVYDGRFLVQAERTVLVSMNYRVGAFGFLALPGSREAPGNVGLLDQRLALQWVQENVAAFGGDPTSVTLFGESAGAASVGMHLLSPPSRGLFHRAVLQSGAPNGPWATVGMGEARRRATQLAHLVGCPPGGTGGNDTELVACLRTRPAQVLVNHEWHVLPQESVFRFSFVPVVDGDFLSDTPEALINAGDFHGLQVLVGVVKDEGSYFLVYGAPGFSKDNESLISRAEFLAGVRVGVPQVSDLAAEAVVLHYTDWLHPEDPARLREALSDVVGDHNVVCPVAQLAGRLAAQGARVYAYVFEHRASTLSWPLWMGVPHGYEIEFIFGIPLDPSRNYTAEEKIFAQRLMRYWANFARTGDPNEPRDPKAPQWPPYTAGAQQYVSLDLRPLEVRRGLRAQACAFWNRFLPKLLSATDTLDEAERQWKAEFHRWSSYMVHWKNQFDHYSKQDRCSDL
Experimental: as §1

human recombinant COX(1) = molecular target: T7, human recombinant COX(1) (Homo sapiens, UniProt P23219); assay: enzyme inhibition; format: biochemical; conditions: range given for five enzymes together, below significance
T7 construct: Eurofins (contract assay)
T7 sequence (P23219 24-599): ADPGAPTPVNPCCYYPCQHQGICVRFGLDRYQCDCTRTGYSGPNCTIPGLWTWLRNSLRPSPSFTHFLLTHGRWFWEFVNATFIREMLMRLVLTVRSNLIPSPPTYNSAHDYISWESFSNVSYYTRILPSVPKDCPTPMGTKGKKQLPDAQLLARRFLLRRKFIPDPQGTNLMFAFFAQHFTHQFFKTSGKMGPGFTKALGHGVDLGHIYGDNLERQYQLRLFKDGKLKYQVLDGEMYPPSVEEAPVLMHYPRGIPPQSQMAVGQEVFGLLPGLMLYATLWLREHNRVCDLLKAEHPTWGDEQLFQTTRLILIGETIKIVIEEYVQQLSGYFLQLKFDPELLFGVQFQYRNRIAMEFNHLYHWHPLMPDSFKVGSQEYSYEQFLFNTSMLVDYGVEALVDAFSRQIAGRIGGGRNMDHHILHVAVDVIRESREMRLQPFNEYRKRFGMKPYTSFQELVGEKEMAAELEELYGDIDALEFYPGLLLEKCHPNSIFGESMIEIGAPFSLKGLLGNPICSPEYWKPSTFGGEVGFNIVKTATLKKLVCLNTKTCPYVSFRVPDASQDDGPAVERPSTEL
Experimental: as §1

[3] = stability in human hepatocytes; format: in vitro ADME
Experimental: Stability of LIT-001 was determined in human hepatocytes. Cells were unfrozen and their viability measured (Tryptan blue). Cells are suspended (2 × 10^6 cells/ml) and dispensed in 96 well microtiterplates (50 μl/well). LIT-001 (50 μl of a 2 μM in the incubation media) was added. The final concentration of the compound was 1 μM in 1 × 10^6 cells/ml. The incubation volume was 100 μl/well. Incubations were stopped after 0, 4, 20, 40, 80 and 120 min in mixing the well content with 100 μl acetonitrile at 0 °C. A positive control (testosterone) was prepared in same conditions. All samples were analyzed by LC-MS/MS (UHPLC coupled to a triple quadripole Shimadzu LC-MS 8030). Each measurement was performed in triplicate.

[4] = system: CFA-induced thermal heat hyperalgesia; assay: thermal heat sensitivity, Plantar test (Hargreaves), CFA model; format: in vivo; conditions: rat
Experimental: LIT-001 was prepared as described in Frantz et al.[20]. For in vivo biological assays, it was dissolved in carboxymethyl cellulose (CMC, 1%) - NaCl (0.9%) and administered at the dose of 10 mg/kg. LIT-001 or vehicle were injected intraperitoneally (i.p.), in a volume of 10 ml/kg[20], 24 h after the induction of the CFA-induced painful inflammatory sensitization. To confirm the implication of the OTR we injected (i.p.) also L-368,899 (Sigma, St. Louis, MO) (1 mg/kg), an OTR antagonist, in combination with LIT-001 in another group of rats[11].
Male Wistar rats (300 g; JANVIER LABS, Le Genest St. Isle, France) were used for this study. They were housed by groups of 3 or 4 under standard conditions (room temperature, 22 °C; 12/12 h light/dark cycle) with ad libitum access to food and water and behavioral enrichment. All animals were manipulated and habituated to the tests and to the room for at least 2 weeks. All behavioral tests were done during the light period (i.e., between 7:00 and 19:00). All the procedures were performed in accordance with European committee council Direction, authorization from French Department of Agriculture and from the regional ethic committee.
To test the animal heat sensitivity, we used the Plantar test with Hargreaves method (Ugo Basile, Comerio, Italy) to compare the response of each hindpaw[33] when we tested healthy animals (unilateral intraplantar NaCl injection) and animals having received unilateral intraplantar CFA (Freund’s Complete Adjuvant) injection. The habituated rat is placed in a small box and we wait until the animal is calmed then we exposed the hindpaw to a radiant heat, the latency time of paw withdrawal was measured.
In order to induce a peripheral inflammation, 100 μl of complete Freund adjuvant (CFA; Sigma, St. Louis, MO), was injected in the right hindpaw of the rat. All CFA injections were performed under light isoflurane anesthesia (3%).

V1aR (hV1AR) = system: V1aR (hV1AR); parameters: method as in PMID 30199637; conditions: cited from earlier work
[5] = system: V2 vasopressin receptor (V2R); parameters: method as in PMID 30199637; conditions: cited from earlier work
[6] = i.p., D1 after CFA, measured 1 hour after injection

Cc1cc(C(=O)N2Cc3cnn(C)c3Nc3ccccc32)ccc1CNC(=O)N1CCC[C@H]1C(=S)N(C)C [LIT-001]
degradation in PBS solution [1]: No degradation
agonist or antagonist activity at GPCRs (24 off-target GPCRs): No significant agonist or antagonist
inhibition at 5 µM (COX(2)): 24.6%
inhibition at 5 µM (Lck kinase): 6.4 to 9.5%
inhibition at 5 µM [2]: 6.4 to 9.5%
inhibition at 5 µM (PDE3A): 6.4 to 9.5%
inhibition at 5 µM (PDE4D2): 23.1%
inhibition at 5 µM (acetylcholinesterase): 6.4 to 9.5%
inhibition at 5 µM (human recombinant COX(1)): 6.4 to 9.5%
degradation on human hepatocytes ([3]; 1 μM, 37 °C, after 2 hours): no degradation was observed
half-life at 1 μM ([3]; human, human hepatocytes (cryopreserved, suspension), from in vitro stability results): > 2 h
thermal heat latency, NaCl-injected hindpaw (control animals) ([4]; 10 mg/kg i.p.): 8.14 ± 0.48 s
thermal heat latency, hindpaw contralateral to CFA (cCFA) ([4]; 10 mg/kg i.p.): 11 ± 0.53 s
relative-to-baseline AUC, thermal heat latency, CFA-injected hindpaw ([4]; i.p. LIT-001 10 mg/kg at D1 after CFA): 135 ± 9%
thermal heat withdrawal latency, CFA-injected hindpaw ([4]; i.p. LIT-001 10 mg/kg at D1 after CFA, 3 h post i.p.): 5.83 ± 0.65 s
dose at which analgesic effect reaches a plateau, thermal heat hypersensitivity [4, 6]: 10 mg/kg
dose of first analgesic action, thermal heat hypersensitivity [4, 6]: 5 mg/kg
EC50 (hV1AR) (V1aR (hV1AR); agonist mode): non significant
IC50 (V1aR (hV1AR); antagonist mode, read-out: IC50, antagonism of vasopressin induced calcium release on V1aR): 5.9 µM
V2R agonism in functional assays [5]: potent V2R agonist
